Experimental data reported in patent publication US11753407B2, “Compounds for treating spinal muscular atrophy” (PTC Therapeutics, Inc., priority 2012, dated 2023).

What was measured:
[1] = system: Smn protein in SMA patient fibroblast cells (GM03813); assay: Smn protein assay in cultured cells (SMN HTRF); format: cell-based, human; details: SMA patient fibroblast cells, 48 hours; for maximum fold (Fold) increase of Smn protein: 7-point concentration data, fold relative to vehicle control; for EC1.5x for Smn protein expression: 7-point concentration curve, SMN HTRF, concentration producing 1.5 times Smn protein vs DMSO vehicle control
Summary of the method: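 Smn protein abundance in treated SMA fibroblasts was measured by HTRF after 48 h compound exposure. The reported EC1.5× is the concentration producing 1.5 times vehicle Smn levels.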

[2] = system: SMN2 minigene mRNA (SMN2-A minigene) in HEK293H cells; assay: SMN2 minigene mRNA splicing RT-qPCR assay in cultured cells; format: cell-based, human; details: Homo sapiens, HEK293-H; concentration increasing full length SMN2 mRNA 1.5-fold relative to vehicle-treated cells; HEK293H cells with SMN2-A minigene, 24 hours, 7-point concentration data; read-out: EC1.5x for production of full length SMN2 mRNA
Summary of the method: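 Potency reflects the concentration that lifts full-length SMN2 minigene mRNA 1.5-fold above vehicle in stably transfected HEK293H cells after 24 h of treatment. Transcript abundance came from RT-qPCR as (1+E)^−Ct, normalized to GAPDH; endogenous SMN1/SMN2 are not detected.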

Row | SMILES | melting point [°C] | maximum fold (Fold) increase of Smn protein [1] | EC (1.5-fold increase) [2] [µM] | EC1.5x for Smn protein expression [1]
1 | O=c1cc(-c2ccc3nc(C(F)(F)F)cn3c2)nc2ccc(N3CCNCC3)cn12 [Compound 123, 7-(piperazin-1-yl)-2-[2-(trifluoromethyl)imidazo[1,2-a]pyridin-6-yl]-4H-pyrido[1,2-a]pyrimidin-4-one] | 250 to 255 | * (A maximum fold increase of ≤1.2 is indicated by one star (*)) | 1 to 3 | –
2 | CCc1cn2cc(-c3cc(=O)n4cc(N5CCNCC5)ccc4n3)ccc2n1 [Compound 124, 2-(2-ethylimidazo[1,2-a]pyridin-6-yl)-7-(piperazin-1-yl)-4H-pyrido[1,2-a]pyrimidin-4-one] | 228 to 232 | ** (a fold increase between >1.2 and ≤1.35 is indicated by two stars (**)) | 0.3 to 1 | –
3 | Cc1nc2ccc(-c3cc(=O)n4cc(N5CCNCC5)ccc4n3)cn2c1C [Compound 125, 2-(2,3-dimethylimidazo[1,2-a]pyridin-6-yl)-7-(piperazin-1-yl)-4H-pyrido[1,2-a]pyrimidin-4-one] | 236 to 240 | *** (a fold increase between >1.35 and ≤1.5 is indicated by three stars (***)) | 0.3 to 1 | –
4 | Cn1ccc2cc(-c3cc(=O)n4cc(N5CCNCC5)ccc4n3)cnc21 [Compound 129, 2-(1-methyl-1H-pyrrolo[2,3-b]pyridin-5-yl)-7-(piperazin-1-yl)-4H-pyrido[1,2-a]pyrimidin-4-one] | 230 to 233 | *** (a fold increase between >1.35 and ≤1.5 is indicated by three stars (***)) | 0.3 to 1 | * (An EC1.5× for Smn protein expression between >3 μM and ≤10 μM is indicated by one star (*))
5 | C[C@@H]1CN(c2ccc3nc(-c4cnc5c(ccn5C)c4)cc(=O)n3c2)C[C@H](C)N1 [Compound 130, 7-[(3R,5S)-3,5-dimethylpiperazin-1-yl]-2-(1-methyl-1H-pyrrolo[2,3-b]pyridin-5-yl)-4H-pyrido[1,2-a]pyrimidin-4-one] | 265 to 268 | *** (a fold increase between >1.35 and ≤1.5 is indicated by three stars (***)) | 1 to 3 | * (An EC1.5× for Smn protein expression between >3 μM and ≤10 μM is indicated by one star (*))
6 | Cc1nc2ccc(-c3cc(=O)n4cc(N5CCNCC5)ccc4n3)cc2o1 [Compound 133, 2-(2-methyl-1,3-benzoxazol-6-yl)-7-(piperazin-1-yl)-4H-pyrido[1,2-a]pyrimidin-4-one] | 219 to 222 | **** (a fold increase between >1.5 and ≤1.65 is indicated by four stars (****)) | < 0.1 | **** (an EC1.5x≤0.3 μM is indicated by four stars (****))
7 | Cc1nc2cc(-c3cc(=O)n4cc(N5CCNCC5)ccc4n3)ccc2s1 [Compound 136, 2-(2-methyl-1,3-benzothiazol-5-yl)-7-(piperazin-1-yl)-4H-pyrido[1,2-a]pyrimidin-4-one] | 228 to 230 | ***** (a fold increase >1.65 is indicated by five stars (*****)) | < 0.1 | **** (an EC1.5x≤0.3 μM is indicated by four stars (****))
8 | Cn1cc2cc(-c3cc(=O)n4cc(N5CCNCC5)ccc4n3)ccc2n1 [Compound 137, 2-(2-methyl-2H-indazol-5-yl)-7-(piperazin-1-yl)-4H-pyrido[1,2-a]pyrimidin-4-one] | 175 to 180 | ***** (a fold increase >1.65 is indicated by five stars (*****)) | 0.1 to 0.3 | *** (an EC1.5× between >0.3 μM and ≤1 μM is indicated by three stars (***))
9 | C[C@H]1CN(c2ccc3nc(-c4ccc5nn(C)cc5c4)cc(=O)n3c2)CCN1 [Compound 138, 2-(2-methyl-2H-indazol-5-yl)-7-[(3S)-3-methylpiperazin-1-yl]-4H-pyrido[1,2-a]pyrimidin-4-one] | 166 to 170 | ***** (a fold increase >1.65 is indicated by five stars (*****)) | 0.1 to 0.3 | *** (an EC1.5× between >0.3 μM and ≤1 μM is indicated by three stars (***))
10 | COc1cc(F)cc(-c2cc(=O)n3cc(N4CCNCC4)ccc3n2)c1 [Compound 139, 2-(3-fluoro-5-methoxyphenyl)-7-(piperazin-1-yl)-4H-pyrido[1,2-a]pyrimidin-4-one] | 168 to 170 | *** (a fold increase between >1.35 and ≤1.5 is indicated by three stars (***)) | 1 to 3 | –
11 | Cc1cn2cc(-c3cc(=O)n4cc(N5CCNCC5)ccc4n3)cc(C)c2n1 [Compound 141, 2-(2,8-dimethylimidazo[1,2-a]pyridin-6-yl)-7-(piperazin-1-yl)-4H-pyrido[1,2-a]pyrimidin-4-one] | 270 to 274 | ***** (a fold increase >1.65 is indicated by five stars (*****)) | < 0.1 | **** (an EC1.5x≤0.3 μM is indicated by four stars (****))

Second part, led by results:

Row | melting point [°C] | SMILES | maximum fold (Fold) increase of Smn protein [1] | EC (1.5-fold increase) [2] [µM] | EC1.5x for Smn protein expression [1]
12 | 286 to 290 | COc1ccc(-c2cc(=O)n3cc(N4C[C@H]5CNC[C@H]5C4)ccc3n2)cc1OC [Compound 126, 2-(3,4-dimethoxyphenyl)-7-[(3aR,6aS)-hexahydropyrrolo[3,4-c]pyrrol-2(1H)-yl]-4H-pyrido[1,2-a]pyrimidin-4-one] | ** (a fold increase between >1.2 and ≤1.35 is indicated by two stars (**)) | 0.1 to 0.3 | –
13 | 182 to 185 | COc1ccc(-c2cc(=O)n3cc(N4CCC(N)CC4)ccc3n2)cc1OC [Compound 127, 7-(4-aminopiperidin-1-yl)-2-(3,4-dimethoxyphenyl)-4H-pyrido[1,2-a]pyrimidin-4-one] | *** (a fold increase between >1.35 and ≤1.5 is indicated by three stars (***)) | 0.3 to 1 | * (An EC1.5× for Smn protein expression between >3 μM and ≤10 μM is indicated by one star (*))
14 | 191 to 193 | Cc1nc2ccc(-c3cc(=O)n4cc(N5CCN[C@@H](C)C5)ccc4n3)cc2o1 [Compound 134, 2-(2-methyl-1,3-benzoxazol-6-yl)-7-[(3S)-3-methylpiperazin-1-yl]-4H-pyrido[1,2-a]pyrimidin-4-one] | ***** (a fold increase >1.65 is indicated by five stars (*****)) | < 0.1 | **** (an EC1.5x≤0.3 μM is indicated by four stars (****))
15 | 174 to 180 | Cc1nc2cc(-c3cc(=O)n4cc(N5CCN[C@@H](C)C5)ccc4n3)ccc2s1 [Compound 135, 2-(2-methyl-1,3-benzothiazol-5-yl)-7-[(3S)-3-methylpiperazin-1-yl]-4H-pyrido[1,2-a]pyrimidin-4-one] | **** (a fold increase between >1.5 and ≤1.65 is indicated by four stars (****)) | < 0.1 | **** (an EC1.5x≤0.3 μM is indicated by four stars (****))
16 | 154 to 156 | COc1cc(F)cc(-c2cc(=O)n3cc(N4CCN[C@@H](C)C4)ccc3n2)c1 [Compound 140, 2-(3-fluoro-5-methoxyphenyl)-7-[(3S)-3-methylpiperazin-1-yl]-4H-pyrido[1,2-a]pyrimidin-4-one] | *** (a fold increase between >1.35 and ≤1.5 is indicated by three stars (***)) | 1 to 3 | –
17 | 176 to 182 | COc1ccc(-c2cc(=O)n3cc(N4CCN[C@@H](C)C4)cc(C)c3n2)cc1OC [Compound 142, 2-(3,4-dimethoxyphenyl)-9-methyl-7-[(3S)-3-methylpiperazin-1-yl]-4H-pyrido[1,2-a]pyrimidin-4-one] | *** (a fold increase between >1.35 and ≤1.5 is indicated by three stars (***)) | 0.3 to 1 | –
18 | 202 to 204 | COc1ccc(-c2cc(=O)n3cc(N4CCN(O)CC4)ccc3n2)cc1OC [Compound 146, 2-(3,4-dimethoxyphenyl)-7-(4-hydroxypiperazin-1-yl)-4H-pyrido[1,2-a]pyrimidin-4-one] | * (A maximum fold increase of ≤1.2 is indicated by one star (*)) | 1 to 3 | –
19 | 156 to 158 | COc1ccc(-c2cc(=O)n3cc(N4CC[C@H](N(C)C)C4)ccc3n2)cc1OC [Compound 147, 2-(3,4-dimethoxyphenyl)-7-[(3S)-3-(dimethylamino)pyrrolidin-1-yl]-4H-pyrido[1,2-a]pyrimidin-4-one] | * (A maximum fold increase of ≤1.2 is indicated by one star (*)) | 1 to 3 | –
20 | 158 to 161 | COc1ccc(-c2cc(=O)n3cc(N4CCC(N(C)C)CC4)ccc3n2)cc1OC [Compound 148, 2-(3,4-dimethoxyphenyl)-7-[4-(dimethylamino)piperidin-1-yl]-4H-pyrido[1,2-a]pyrimidin-4-one] | *** (a fold increase between >1.35 and ≤1.5 is indicated by three stars (***)) | 0.1 to 0.3 | ** (an EC1.5× between >1 μM and ≤3 μM is indicated by two stars (**))
